Assay results: US9029359B2, “Heteroaryl Btk inhibitors” (Biogen Idec MA, Inc., priority 2009, dated 2015)

Target: T1, BTK (Homo sapiens, UniProt Q06187)
T1 construct: purchased Upstate 14-552
Experiment: In vitro BTK kinase assay: BTK-POLYGAT-LS ASSAY
Format: biochemical
Details: ATP 10 uM
Experimental: In vitro BTK kinase assay: BTK-POLYGAT-LS ASSAY. The purpose of the BTK in vitro assay is to determine compound potency against BTK through the measurement of IC50. […] A 24 μL aliquot of a ATP/peptide master mix (final concentration; ATP 10 μM, polyGAT 100 nM) in kinase buffer (10 mM Tris-HCl pH 7.5, 10 mM MgCl2, 200 μM Na3VO4, 5 mM DTT, 0.01% Triton X-100, and 0.2 mg/ml Casein) is added to each well. […] The assay is incubated for 30 minutes before being stopped with 28 μL of a 50 mM EDTA solution. […] The plate is covered and incubated for 45 minutes at room temperature. Time resolved fluorescence (TRF) on Molecular Devices M5 (332 nm excitation; 488 nm emission; 518 nm fluorescein emission) is measured.

T1 sequence (Q06187 whole entry): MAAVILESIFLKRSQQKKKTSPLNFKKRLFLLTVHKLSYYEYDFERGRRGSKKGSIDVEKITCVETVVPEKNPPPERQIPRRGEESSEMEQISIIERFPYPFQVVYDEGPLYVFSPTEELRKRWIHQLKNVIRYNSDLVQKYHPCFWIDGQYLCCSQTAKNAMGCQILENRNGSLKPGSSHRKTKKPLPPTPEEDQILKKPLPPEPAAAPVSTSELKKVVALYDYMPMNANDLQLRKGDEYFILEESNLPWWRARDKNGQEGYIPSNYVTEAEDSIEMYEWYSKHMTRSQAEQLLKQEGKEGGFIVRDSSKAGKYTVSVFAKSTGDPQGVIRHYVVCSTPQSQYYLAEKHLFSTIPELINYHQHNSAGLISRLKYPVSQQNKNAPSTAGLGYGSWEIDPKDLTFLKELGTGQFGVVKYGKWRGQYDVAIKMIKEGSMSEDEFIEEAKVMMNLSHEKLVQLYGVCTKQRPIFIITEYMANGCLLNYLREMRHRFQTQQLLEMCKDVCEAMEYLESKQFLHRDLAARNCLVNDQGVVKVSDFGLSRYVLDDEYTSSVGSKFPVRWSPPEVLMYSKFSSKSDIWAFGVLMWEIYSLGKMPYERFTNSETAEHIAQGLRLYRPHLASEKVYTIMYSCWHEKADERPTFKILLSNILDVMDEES

SMILES	IC50 [nM]
Nc1ncnc(N2CCC[C@@H](NC(=O)CNc3cc(Cl)cc(Cl)c3)C2)c1Cl [Example 140, (R)—N-(1-(6-amino-5-chloropyrimidin-4-yl)piperidin-3-yl)-2-(3,5-dichlorophenylamino)acetamide]	100 to 999
CC1CN(S(=O)(=O)c2ccccc2NCC(=O)N[C@@H]2CCCN(c3ncnc4[nH]ccc34)C2)CC(C)O1 (stereo partly drawn) [Example 378]	100 to 999
Cc1c(Cl)cccc1NCC(=O)N[C@@H]1CCCN(c2ncnc3[nH]ccc23)C1 [Example 272]	< 100
O=C(CNc1ccccc1Oc1ccccc1)N[C@@H]1CCCN(c2ncnc3[nH]ccc23)C1 [Example 241]	< 100
O=C(CNc1cccc2[nH]ncc12)NC1CCCN(c2ncnc3[nH]ccc23)C1 (stereo not drawn) [Example 76, (2-(1H-indazol-4-ylamino)-N-(1-(7H-pyrrolo[2,3-d]pyrimidin-4-yl)piperidin-3-yl)acetamide)]	100 to 999
O=C(CNC(=O)N1CCCCC1)NC1CCCN(c2ncnc3[nH]ccc23)C1 (stereo not drawn) [Example 330]	> 10000
COc1cc(NCC(=O)N[C@@H]2CCCN(c3ncnc4[nH]ccc34)C2)cc(C(F)(F)F)c1 [Example 327]	100 to 999
O=C(CNc1cccc(F)c1F)NC1CCCN(c2ncnc3[nH]ccc23)C1 (stereo not drawn) [Example 71, (N-(1-(7H-pyrrolo[2,3-d]pyrimidin-4-yl)piperidin-3-yl)-2-(2,3-difluorophenylamino)acetamide)]	100 to 999
O=C(CNc1cc(F)c(F)cc1F)N[C@@H]1CCCN(c2ncnc3[nH]ccc23)C1 [Example 453]	100 to 999
O=C(O)Cc1cccc(NCC(=O)N[C@@H]2CCCN(c3ncnc4[nH]ccc34)C2)c1 [Example 389]	1000 to 10000
C[C@@H](O)[C@@H](Nc1cc(F)cc(Cl)c1)C(=O)N[C@@H]1CCCN(c2ncnc3[nH]ccc23)C1 [Example 307]	100 to 999
Cn1ncc2c(N3CCC[C@@H](NC(=O)[C@H](Nc4cc(F)cc(Cl)c4)C4CC4)C3)ncnc21 [Example 137, (R)-2-(3-chloro-5-fluorophenylamino)-2-cyclopropyl-N—((R)-1-(1-methyl-1H-pyrazolo[3,4-d]pyrimidin-4-yl)piperidin-3-yl)acetamide]	1000 to 10000
Cn1cccc(NCC(=O)NC2CCCN(c3ncnc4[nH]ccc34)C2)c1=O (stereo not drawn) [Example 342]	> 10000
CN(C)C(=O)c1cccc(NCC(=O)NC2CCCN(c3ncnc4[nH]ccc34)C2)c1 (stereo not drawn) [Example 43, (3-(2-(1-(7H-pyrrolo[2,3-d]pyrimidin-4-yl)piperidin-3-ylamino)-2-oxoethylamino)-N,N-dimethylbenzamide)]	1000 to 10000
CC(C)Oc1ccccc1NCC(=O)N[C@@H]1CCCN(c2ncnc3[nH]ccc23)C1 [Example 248]	100 to 999
O=C(CNC(=O)c1ccccc1Cl)NC1CCCN(c2ncnc3[nH]ccc23)C1 (stereo not drawn) [Example 92, (N-(2-(1-(7H-pyrrolo[2,3-d]pyrimidin-4-yl)piperidin-3-ylamino)-2-oxoethyl)-2-chlorobenzamide)]	1000 to 10000
O=C1CCc2c(ncnc2N2CCC[C@@H](NC(=O)[C@H](Nc3cc(F)cc(Cl)c3)C3CC3)C2)N1 [Example 135, (R)-2-(3-chloro-5-fluorophenylamino)-2-cyclopropyl-N—((R)-1-(7-oxo-5,6,7,8-tetrahydropyrido[2,3-d]pyrimidin-4-yl)piperidin-3-yl)acetamide]	100 to 999
O=C(CNc1ccccc1)N(CCN1CCOCC1)C1CCCN(c2ncnc3[nH]ccc23)C1 (stereo not drawn) [Example 323]	100 to 999
O=C(N[C@@H]1CCCN(c2ncnc3[nH]ccc23)C1)[C@H](Nc1cccc(Cl)c1)C1CC1 [Example 119, (R)—N—((R)-1-(7H-pyrrolo[2,3-d]pyrimidin-4-yl)piperidin-3-yl)-2-(3-chlorophenylamino)-2-cyclopropylacetamide]	< 100
O=C(CNc1cccc(OC(F)(F)C(F)F)c1)N[C@@H]1CCCN(c2ncnc3[nH]ccc23)C1 [Example 441]	100 to 999
O=C(CNc1ccc(F)cc1)NC1CCCN(c2ncnc3[nH]ccc23)C1 (stereo not drawn) [Example 33, (N-(1-(7H-pyrrolo[2,3-d]pyrimidin-4-yl)piperidin-3-yl)-2-(4-fluorophenylamino)acetamide)]	1000 to 10000
O=C(CNc1ccccc1S(=O)(=O)N1CCCCC1)N[C@@H]1CCCN(c2ncnc3[nH]ccc23)C1 [Example 182]	< 100
CC[C@H](C)[C@@H](Nc1cc(F)cc(Cl)c1)C(=O)N[C@H]1CN(c2ncnc3[nH]ncc23)CC[C@@H]1C [Example 365]	< 100
CCN(C(C)C)S(=O)(=O)c1ccccc1NCC(=O)N[C@@H]1CCCN(c2ncnc3[nH]ncc23)C1 [Example 196]	< 100
CC(C)(C)[C@@H](Nc1cc(Cl)cc(Cl)c1)C(=O)N[C@@H]1CCCN(c2ncnc3[nH]ccc23)C1 [Example 202]	< 100
O=C(CNc1ccccc1Cl)N[C@@H]1CCCN(c2ncnc3[nH]ccc23)C1 [Example 236]	< 100
CC(C)(C)c1ccc(C(=O)NCC(=O)NC2CCCN(c3ncnc4[nH]ccc34)C2)cc1 (stereo not drawn) [Example 95, (N-(2-(1-(7H-pyrrolo[2,3-d]pyrimidin-4-yl)piperidin-3-ylamino)-2-oxoethyl)-4-tert-butylbenzamide)]	100 to 999

SMILES	IC50 [nM]
O=C(CNc1ccc(F)c(I)c1)N[C@@H]1CCCN(c2ncnc3[nH]ccc23)C1 [Example 275]	100 to 999
CC(C)c1ccccc1N[C@@H](C(=O)N[C@@H]1CCCN(c2ncnc3[nH]ncc23)C1)C1CC1 [Example 234]	100 to 999
CN(CC(=O)NC1CCCN(c2ncnc3[nH]ccc23)C1)c1ccccc1 (stereo not drawn) [Example 16, (N-(1-(7H-pyrrolo[2,3-d]pyrimidin-4-yl)piperidin-3-yl)-2-(methyl(phenyl)amino)acetamide)]	1000 to 10000
Cc1cc(C)cc(NCC(=O)N[C@@H]2CCCN(c3ncnc4[nH]ccc34)C2)c1 [Example 282]	100 to 999
CCCCOc1ccccc1NCC(=O)N[C@@H]1CCCN(c2ncnc3[nH]ccc23)C1 [Example 199]	< 100
O=C(N[C@@H]1CCCN(c2ncnc3[nH]cc(F)c23)C1)[C@H](Nc1cc(F)cc(Cl)c1)C1CC1 [Example 138, (R)-2-(3-chloro-5-fluorophenylamino)-2-cyclopropyl-N—((R)-1-(5-fluoro-7H-pyrrolo[2,3-d]pyrimidin-4-yl)piperidin-3-yl)acetamide]	100 to 999
CC(C)c1ccccc1N[C@@H](C(=O)N[C@@H]1CCCN(c2ncnc3[nH]ccc23)C1)[C@H](C)O [Example 239]	100 to 999
CN1CCN(S(=O)(=O)c2ccccc2NCC(=O)N[C@@H]2CCCN(c3ncnc4[nH]ccc34)C2)CC1 [Example 377]	1000 to 10000
CC(C)c1ccccc1NCC(=O)N[C@@H]1CCCN(c2ncnc3[nH]ccc23)C1 [Example 210]	< 100
C[C@H](O)[C@@H](Nc1cc(F)cc(Cl)c1)C(=O)N[C@@H]1CCCN(c2ncnc3[nH]ccc23)C1 [Example 306]	100 to 999
Cn1nc(C(C)(C)C)cc1NCC(=O)NC1CCCN(c2ncnc3[nH]ccc23)C1 (stereo not drawn) [Example 57, (N-(1-(7H-pyrrolo[2,3-d]pyrimidin-4-yl)piperidin-3-yl)-2-(3-ten-butyl-1-methyl-1H-pyrazol-5-ylamino)acetamide)]	1000 to 10000
O=C(CNc1cccc(-n2cncn2)c1)N[C@@H]1CCCN(c2ncnc3[nH]ccc23)C1 [Example 395]	1000 to 10000
NC(=O)c1cccc(NCC(=O)N[C@@H]2CCCN(c3ncnc4[nH]ccc34)C2)c1 [Example 434]	1000 to 10000
O=C(CNC(=O)C1CCCCC1)NC1CCCN(c2ncnc3[nH]ccc23)C1 (stereo not drawn) [Example 99, (N-(2-(1-(7H-pyrrolo[2,3-d]pyrimidin-4-yl)piperidin-3-ylamino)-2-oxoethyl)cyclohexanecarboxamide)]	1000 to 10000
Cc1cccc(C)c1NCC(=O)N[C@@H]1CCCN(c2ncnc3[nH]ccc23)C1 [Example 421]	1000 to 10000
C#Cc1cccc(NCC(=O)NC2CCCN(c3ncnc4[nH]ccc34)C2)c1 (stereo not drawn) [Example 55, (N-(1-(7H-pyrrolo[2,3-d]pyrimidin-4-yl)piperidin-3-yl)-2-(3-ethynylphenylamino)acetamide)]	< 100
CCC[C@@H](Nc1ccccc1C(C)C)C(=O)N[C@@H]1CCCN(c2ncnc3[nH]ncc23)C1 [Example 376]	100 to 999
O=C(CNc1ccccn1)NC1CCCN(c2ncnc3[nH]ccc23)C1 (stereo not drawn) [Example 352]	1000 to 10000
CC(C)(C)[C@@H](Nc1cccc(Cl)c1)C(=O)N[C@@H]1CCCN(c2ncnc3[nH]ccc23)C1 [Example 255]	< 100
O=C(CNc1ccccc1Sc1ccccc1)N[C@@H]1CCCN(c2ncnc3[nH]ccc23)C1 [Example 194]	< 100
O=C(CNc1cc(Cl)ccc1Cl)N[C@@H]1CCCN(c2ncnc3[nH]ccc23)C1 [Example 319]	100 to 999
Cc1ccc(NCC(=O)N[C@@H]2CCCN(c3ncnc4[nH]ccc34)C2)cc1F [Example 293]	100 to 999
CCCC[C@@H](Nc1cc(F)cc(Cl)c1)C(=O)N[C@@H]1CCCN(c2ncnc3[nH]ncc23)C1 [Example 193]	< 100
O=C(CNc1cccc(-n2cccc2)c1)N[C@@H]1CCCN(c2ncnc3[nH]ccc23)C1 [Example 303]	100 to 999
O=C(CNc1cccc(SC(F)(F)F)c1)NC1CCCN(c2ncnc3[nH]ccc23)C1 (stereo not drawn) [Example 82, (N-(1-(7H-pyrrolo[2,3-d]pyrimidin-4-yl)piperidin-3-yl)-2-(3-(trifluoromethylthio)phenylamino)acetamide)]	100 to 999
CC[C@H](C)[C@@H](Nc1cc(F)cc(Cl)c1)C(=O)N[C@@H]1CCCN(c2ncnc3[nH]ncc23)C1 [Example 192]	< 100
O=C(CNc1cccc2c1OCCO2)NC1CCCN(c2ncnc3[nH]ccc23)C1 (stereo not drawn) [Example 336]	> 10000
